From patent publication US20050187240A1, “Aaptamine and isoaaptamine and structural modifications thereof” (The Arizona Board of Regents, Acting for and on behalf of …, priority 2004, published 2005) come the findings set out here.

Values after ≈ are worked out from the molar mass of the structure shown. Counter-ions that a name gives are not always drawn. Like-named read-outs stand apart in the source and are kept apart here.

Data set [1] relates to Micrococcus luteus. Put plainly: Broth microdilution susceptibility assay, Micrococcus luteus. Particulars: for MIC: Table 4, read-out: Range of minimum inhibitory concentration; for Range of minimum inhibitory concentration: Table 6. The format is cell-based. (In general: In broth dilution the organism is exposed to a series of concentrations in liquid medium.)
Data set [2] deals with Candida albicans. Put plainly: Broth microdilution susceptibility assay, Candida albicans. In kind it is cell-based. Particulars: for MIC: Table 4, read-out: Range of minimum inhibitory concentration; for Range of minimum inhibitory concentration: Table 6.
The test system of data set [3] is Streptococcus pneumoniae. In words: Broth microdilution susceptibility assay, Streptococcus pneumoniae. In kind it is cell-based. To be noted: for MIC: Table 4, read-out: Range of minimum inhibitory concentration; for Range of minimum inhibitory concentration: Table 6.
In data set [4] the test system is Staphylococcus aureus. Put plainly: Broth microdilution susceptibility assay, Staphylococcus aureus. The format is cell-based. Particulars: for MIC: Table 4, read-out: Range of minimum inhibitory concentration; for Range of minimum inhibitory concentration: Table 6.
Data set [5] relates to breast MCF-7. Put plainly: Cancer cell growth inhibition, breast MCF-7. The format is cell-based, human. Particulars: Homo sapiens, MCF7, breast MCF-7. As for the experimental part:
(§1) Biology The cancer cell growth inhibitory properties were examined using the murine P388 lymphocytic leukemia cell line and a selection of human cancer cell lines.
(§2) All of the synthetic products were evaluated against a minipanel of human cancer cell lines, the murine P388 lymphocytic leukemia cell line and a selection of microorganisms.

Data set [6] relates to lung NCI-H460. Put plainly: Cancer cell growth inhibition, lung NCI-H460. In kind it is cell-based, human. To be noted: Homo sapiens, lung NCI-H460.
Excerpt: (§3) Evaluation of demethyloxyaaptamine (3), aaptamine (1), isoaaptamine (2) and hystatin 1 (11) against the Arizona State University Cancer Research Institute's human tumor cell line panel (Table 1) and the NCI 60-cell line human tumor screen were undertaken. (Boyd, M. R., Cancer: Principles and Practices of Oncology Updates; DeVita, et al., Eds; Lippincott: Philadelphia, 1989, Vol. 10, No. 3, pp. 1-12; Boyd, et al., Drug Development Research 1995, 34, 91-109; Boyd, M. R., et al. Cytotoxic Anticancer Drugs: Models and Concepts for Drug Discovery and Development; Valeriote, A., et al., Eds, Kluwer Academic Publishers: Amsterdam, 1992, pp. 11-34.)
as §1, §2

The test system of data set [7] is pancreas BXPC-3. In words: Cancer cell growth inhibition, pancreas BXPC-3. The format is cell-based, human. Particulars: Homo sapiens, pancreas BXPC-3. As for the experimental part: as §1, §2
In data set [8] the test system is Enterococcus faecalis. In words: Broth microdilution susceptibility assay, Enterococcus faecalis. In kind it is cell-based. Particulars: for MIC: Table 4, read-out: Range of minimum inhibitory concentration.
In data set [9] the test system is Neisseria gonorrhoeae. In words: Broth microdilution susceptibility assay, Neisseria gonorrhoeae. In kind it is cell-based. Particulars: for MIC: Table 4, read-out: Range of minimum inhibitory concentration; for Range of minimum inhibitory concentration: Table 6.
Data set [10] deals with colon KM 20L2. Put plainly: Cancer cell growth inhibition, colon KM 20L2. The format is cell-based, human. To be noted: Homo sapiens, colon KM 20L2.
Excerpt: as §3, §1, §2

Data set [11] relates to Enterobacter cloacae. In words: Broth microdilution susceptibility assay, Enterobacter cloacae. The format is cell-based. To be noted: for MIC: Table 4, read-out: Range of minimum inhibitory concentration.
In data set [12] the test system is Escherichia coli. Put plainly: Broth microdilution susceptibility assay, Escherichia coli. Particulars: for MIC: Table 4, read-out: Range of minimum inhibitory concentration; for Range of minimum inhibitory concentration: Table 6. In kind it is cell-based.
The test system of data set [13] is Stenotrophomonas maltophilia. Put plainly: Broth microdilution susceptibility assay, Stenotrophomonas maltophilia. To be noted: for MIC: Table 4, Stenotrophomonas maltophil, read-out: Range of minimum inhibitory concentration; for Range of minimum inhibitory concentration: Table 6. In kind it is cell-based.
For data set [14], the target named is PKC alpha (Homo sapiens, UniProt P17252). In words: Inhibition of PKC catalytic activity (peptide substrate phosphorylation). In kind it is biochemical. To be noted: 30 μM compound; 1 μM phorbol 12-myristate 13-acetate, 100 μg/ml phospholipid; mean±SEM, three experiments; read-out: percent inhibition of PKC catalytic activity. The source says: We further evaluated the ability of the derivatives to inhibit PKC catalytic activity. […] Inhibition by 10c was 19.5±7.6% and inhibition by 4, 5, and 9a, b, c was 6% or less (all values are mean±SEM, three experiments). […] In both cases, the inhibition curves were steeper than predicted for a competitive inhibitor, consistent with a complicated mechanism of action (Hill coefficients for 10a and 10b of 1.5±0.1 and 2.0±0.5, respectively).

Data set [15] deals with prostrate DU-145. Put plainly: Cancer cell growth inhibition, prostate DU-145. The format is cell-based, human. To be noted: Homo sapiens. Here is the method:
as §1, §2

The test system of data set [16] is CNS SF-268. In words: Cancer cell growth inhibition, CNS SF-268. The format is cell-based, human. To be noted: Homo sapiens, CNS SF-268. Here is the method: as §1, §2
Data set [17] concerns Cryptococcus neoformans. In words: Broth microdilution susceptibility assay, Cryptococcus neoformans. In kind it is cell-based. To be noted: for MIC: Table 4, read-out: Range of minimum inhibitory concentration; for Range of minimum inhibitory concentration: Table 6.
Data set [18] relates to murine P388 lymphocytic leukemia cell line. Put plainly: Cancer cell growth inhibition, murine P388 lymphocytic leukemia cell line. In kind it is cell-based. Particulars: for IC50: Mus musculus; for P388 ED50: murine P388.
Excerpt: as §3, §1, §2

Setting [19] is: Table 3, read-out: Cancer cell growth inhibitory ED50.
Setting [20] is: Table 5, read-out: Cancer Cell Line Results ED50.
Setting [21] is: DU-145, Table 5, prostate DRU-145, read-out: Cancer Cell Line Results ED50.
Where [22] appears, read: Table 3, prostrate DU-145, read-out: Cancer cell growth inhibitory ED50.
[23] abbreviates: P388, Table 3, leukemia P-388, read-out: Cancer cell growth inhibitory ED50.
The mark [24] stands for this setting: Table 5, leukemia P388, read-out: Cancer Cell Line Results ED50.

A word on the melting point: it is the temperature of the solid-liquid transition. Turning to `Oc1cc2ccnc3c2c(c1O)NC=C3` (as salt: hydrobromid) [Compound 15, 8,9-Dihydroxy-1H-Benzo[de][1,6]naphthyridine hydrobromide], the melting point was 245 to 248 °C (dec.).

As usually defined, the inhibition is the share of the control response that was lost under treatment. With `COc1cc2c3c(cc[n+](C)c3c1OC)N(C)C=C2.[I-]` [Compound 5, 1,4-Dimethyl-8,9-dimethoxy-4H-benzo-[de][1,6]naphthyridin-1-ium iodide], the MIC was 16 to 32 mg/L in data set [1]; > 64 mg/L in data set [2]; > 64 mg/L in data set [3]; > 64 mg/L in data set [4]; > 64 mg/L in [8]; > 64 mg/L in data set [9]. Besides, the MIC in data set [11], in data set [12], in data set [13] and in data set [17] was > 64 mg/L throughout. Moreover, the IC50 was 4.9 mg/L in data set [5] (setting [19]); 4.9 mg/L in data set [5] (setting [20]); > 10 mg/L in [6] (setting [19]); > 10 mg/L in data set [6] (setting [20]); 7.1 mg/L in data set [7] (setting [19]); 7.1 mg/L in [7] (setting [20]). Also, the IC50 in [10] (setting [19]) is 6.1 mg/L; in data set [10] (setting [20]), 6.1 mg/L; in data set [15] (setting [21]), 3.5 mg/L; in [15] (setting [22]) it was 3.5 mg/L; in data set [16] (setting [19]) it was 0.69 mg/L; in [16] (setting [20]), 0.69 mg/L. For the same compound, the IC50 stood at 3.9 mg/L in data set [18] (setting [23]) and 3.89 mg/L in data set [18] (setting [24]). Also, in [14], the inhibition at 30 µM is ≤ 6%. The “P388 ED50” value in [18] was 3.9 mg/L.

Regarding `COc1cc2c3c(ccnc3c1O)N(C)C=C2` [Compound 8, 4-Methyl-8-methoxy-9-hydroxy-4H-benzo[de][1,6]naphthyridine], the MIC in [1] is > 64 mg/L; in data set [2], > 64 mg/L; in data set [3] it was > 64 mg/L; in data set [4], > 64 mg/L; in data set [8], > 64 mg/L; in data set [9], 4 mg/L (≈ 17.5 µM). Besides, the MIC in [11], in data set [12], in [13] and in [17] was > 64 mg/L throughout. Moreover, the IC50 in data set [5] (setting [19]), in data set [6] (setting [19]), in data set [7] (setting [19]), in data set [10] (setting [19]), in data set [15] (setting [22]) and in data set [16] (setting [19]) was > 10 mg/L in each case. Moreover, the IC50 in [18] (setting [23]) is > 10 mg/L.

Consider `COc1cc(CN2C=Cc3cc(OC)c(OC)c4nccc2c34)cc(OC)c1OC.Cl` [Compound 9c, 8,9-Dimethoxy-4-(3,4,5-trimethoxybenzyl)-4H-benzo[de][1,6]naphthyridine hydrochloride], for which the melting point is 198 to 200 °C (dec.). Besides, the “Range of minimum inhibitory concentration” value in data set [1] is given as “* (no inhibition at 64 μg/mL)”. The “Range of minimum inhibitory concentration” value in data set [2] is given as “* (no inhibition at 64 μg/mL)”. For the same compound, the “Range of minimum inhibitory concentration” value in data set [3] is given as “* (no inhibition at 64 μg/mL)”. For the same compound, the “Range of minimum inhibitory concentration” value in data set [4] was “* (no inhibition at 64 μg/mL)”. In addition, in [5] (setting [20]), the IC50 is > 10 mg/L. Besides, the IC50 in [6] (setting [20]) was > 10 mg/L. Also, the IC50 in data set [7] (setting [20]) is > 10 mg/L. In addition, in [9], the “Range of minimum inhibitory concentration” value worked out at 64 mg/L. The IC50 in [10] (setting [20]) worked out at 3.4 mg/L. Moreover, the “Range of minimum inhibitory concentration” value in data set [12] is “* (no inhibition at 64 μg/mL)”. Besides, the “Range of minimum inhibitory concentration” value in [13] is “* (no inhibition at 64 μg/mL)”. Also, the inhibition at 30 µM in data set [14] was ≤ 6%. In addition, the IC50 in data set [15] (setting [21]) was > 10 mg/L. Further, the IC50 in data set [16] (setting [20]) was > 10 mg/L. In [17], the “Range of minimum inhibitory concentration” value is given as “* (no inhibition at 64 μg/mL)”. Besides, the IC50 in data set [18] (setting [24]) came to 4.64 mg/L.

With `COc1cc(CN2C=Cc3cc(OC)c(OC)c4c3c2cc[n+]4Cc2cc(OC)c(OC)c(OC)c2)cc(OC)c1OC.[Br-]` [Compound 10c, 8,9-Dimethoxy-1,4-bis-(3,4,5-trimethoxy-benzyl)-4H-benzo[de][1,6]-naphthyridin-1-ium bromide], the melting point lay in the range of 116 to 118 °C. Also, the “Range of minimum inhibitory concentration” value in data set [1] was found to be 64 mg/L. Moreover, the “Range of minimum inhibitory concentration” value in [2] is on record as “* (no inhibition at 64 μg/mL)”. Besides, in data set [3], the “Range of minimum inhibitory concentration” value is recorded as “* (no inhibition at 64 μg/mL)”. Further, the “Range of minimum inhibitory concentration” value in data set [4] is recorded as “* (no inhibition at 64 μg/mL)”. Besides, the IC50 in data set [5] (setting [20]) is > 10 mg/L. In addition, the IC50 in data set [6] (setting [20]) was > 10 mg/L. Besides, the IC50 in data set [7] (setting [20]) was > 10 mg/L. The “Range of minimum inhibitory concentration” value in data set [8] (Table 6) is “* (no inhibition at 64 μg/mL)”. The “Range of minimum inhibitory concentration” value in data set [9] is recorded as “* (no inhibition at 64 μg/mL)”. For the same compound, in data set [10] (setting [20]), the IC50 was > 10 mg/L. The “Range of minimum inhibitory concentration” value in [11] (Table 6) was “* (no inhibition at 64 μg/mL)”. Also, the “Range of minimum inhibitory concentration” value in [12] is on record as “* (no inhibition at 64 μg/mL)”. The “Range of minimum inhibitory concentration” value in data set [13] was “* (no inhibition at 64 μg/mL)”. Further, in data set [14], the inhibition at 30 µM came out at 19.5 ± 7.6%. Moreover, in data set [15] (setting [21]), the IC50 was > 10 mg/L. Further, the IC50 in [16] (setting [20]) was > 10 mg/L. Moreover, the “Range of minimum inhibitory concentration” value in data set [17] was “* (no inhibition at 64 μg/mL)”. Besides, the IC50 in data set [18] (setting [24]) was > 10 mg/L.

Take `COC1=Cc2ccnc3ccnc(c23)C1(OC)OC` [Compound 12]: the “P388 ED50” value in data set [18] came out at 59 mg/L.

With `COc1ccc(CN2C=Cc3cc(OC)c(OC)c4c3c2cc[n+]4C)cc1.[I-]` [Compound 17, 1-Methyl-4-(4-methoxybenzyl)-8,9-dimethoxy-4H-benzo[de][1,6]-naphthyridin-1-ium iodide], the MIC in [1] is 4 to 8 mg/L; in [2], > 64 mg/L; in [3], > 64 mg/L; in [4], > 64 mg/L; in data set [8] it was > 64 mg/L; in data set [9] it was 64 mg/L. The MIC in [11], in data set [12], in data set [13] and in data set [17] was > 64 mg/L each time. Moreover, the IC50 turned out to be 8 mg/L in data set [5] (setting [19]); 4.6 mg/L in [6] (setting [19]); 7 mg/L in data set [7] (setting [19]); 5.4 mg/L in [10] (setting [19]); 7.5 mg/L in data set [15] (setting [22]); 5.9 mg/L in data set [16] (setting [19]). The IC50 in [18] (setting [23]) worked out at 3.1 mg/L.
